According to paper PMC12155096 (International Journal of Molecular Sciences, 2025):
Read-outs that look alike come from different tables or passages of the source.

How the values were obtained:
human CYP2C9 = human CYP2C9 (Homo sapiens, UniProt P11712)
[1] = biological target: Photinus pyralis (firefly) luciferase (Photinus pyralis, UniProt P08659); test: biochemical; format: biochemical
human CYP2D6 = human CYP2D6 (Homo sapiens, UniProt P10635)
CYP3A4 = CYP3A4 (Homo sapiens, UniProt P08684)
human CYP1A2 = biological target: T1, human CYP1A2 (Homo sapiens, UniProt P05177)
T1 sequence (P05177 1-516): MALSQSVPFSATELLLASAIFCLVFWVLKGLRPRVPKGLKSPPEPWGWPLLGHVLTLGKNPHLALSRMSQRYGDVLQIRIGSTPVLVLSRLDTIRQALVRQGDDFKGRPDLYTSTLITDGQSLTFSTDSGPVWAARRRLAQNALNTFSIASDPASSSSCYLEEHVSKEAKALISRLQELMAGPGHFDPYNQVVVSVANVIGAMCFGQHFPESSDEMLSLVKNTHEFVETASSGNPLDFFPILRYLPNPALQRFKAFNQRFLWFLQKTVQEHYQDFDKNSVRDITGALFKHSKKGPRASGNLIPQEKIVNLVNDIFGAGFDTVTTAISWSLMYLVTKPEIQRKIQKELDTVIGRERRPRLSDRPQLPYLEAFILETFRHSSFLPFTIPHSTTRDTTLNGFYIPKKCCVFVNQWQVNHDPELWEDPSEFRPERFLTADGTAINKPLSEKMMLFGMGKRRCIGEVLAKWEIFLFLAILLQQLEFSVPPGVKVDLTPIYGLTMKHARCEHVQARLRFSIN

human CYP2C19 = human CYP2C19 (Homo sapiens, UniProt P33261)
human CYP2C19, sequence (P33261 whole entry): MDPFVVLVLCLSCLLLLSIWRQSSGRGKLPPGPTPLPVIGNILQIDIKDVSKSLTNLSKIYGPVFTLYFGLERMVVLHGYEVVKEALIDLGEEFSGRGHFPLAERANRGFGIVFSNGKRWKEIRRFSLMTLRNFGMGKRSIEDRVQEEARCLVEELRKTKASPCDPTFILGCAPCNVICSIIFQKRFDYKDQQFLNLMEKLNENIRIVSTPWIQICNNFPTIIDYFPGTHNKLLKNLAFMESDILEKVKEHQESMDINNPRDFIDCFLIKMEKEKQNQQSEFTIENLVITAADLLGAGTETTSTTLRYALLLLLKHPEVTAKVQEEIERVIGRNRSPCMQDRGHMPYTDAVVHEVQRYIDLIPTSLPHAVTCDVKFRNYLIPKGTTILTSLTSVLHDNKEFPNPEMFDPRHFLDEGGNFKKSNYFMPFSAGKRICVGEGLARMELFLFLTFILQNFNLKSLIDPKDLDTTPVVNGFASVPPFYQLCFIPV

[2] = read-out: Luciferase IC50 (half-maximal inhibitory concentration)

human CYP2D6, sequence (P10635 whole entry): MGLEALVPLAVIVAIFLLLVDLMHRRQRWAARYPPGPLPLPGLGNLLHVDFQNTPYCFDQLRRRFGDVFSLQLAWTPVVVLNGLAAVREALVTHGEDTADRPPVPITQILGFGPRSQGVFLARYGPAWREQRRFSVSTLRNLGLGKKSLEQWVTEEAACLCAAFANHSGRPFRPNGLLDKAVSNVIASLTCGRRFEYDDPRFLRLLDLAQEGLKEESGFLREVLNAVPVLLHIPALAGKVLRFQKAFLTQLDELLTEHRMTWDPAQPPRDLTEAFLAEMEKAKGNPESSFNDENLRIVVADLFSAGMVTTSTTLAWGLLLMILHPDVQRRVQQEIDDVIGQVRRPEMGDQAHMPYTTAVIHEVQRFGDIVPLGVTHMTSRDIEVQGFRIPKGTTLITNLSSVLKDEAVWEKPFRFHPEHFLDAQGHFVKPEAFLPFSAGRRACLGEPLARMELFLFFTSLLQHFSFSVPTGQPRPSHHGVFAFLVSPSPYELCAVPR
CYP3A4, sequence (P08684 whole entry): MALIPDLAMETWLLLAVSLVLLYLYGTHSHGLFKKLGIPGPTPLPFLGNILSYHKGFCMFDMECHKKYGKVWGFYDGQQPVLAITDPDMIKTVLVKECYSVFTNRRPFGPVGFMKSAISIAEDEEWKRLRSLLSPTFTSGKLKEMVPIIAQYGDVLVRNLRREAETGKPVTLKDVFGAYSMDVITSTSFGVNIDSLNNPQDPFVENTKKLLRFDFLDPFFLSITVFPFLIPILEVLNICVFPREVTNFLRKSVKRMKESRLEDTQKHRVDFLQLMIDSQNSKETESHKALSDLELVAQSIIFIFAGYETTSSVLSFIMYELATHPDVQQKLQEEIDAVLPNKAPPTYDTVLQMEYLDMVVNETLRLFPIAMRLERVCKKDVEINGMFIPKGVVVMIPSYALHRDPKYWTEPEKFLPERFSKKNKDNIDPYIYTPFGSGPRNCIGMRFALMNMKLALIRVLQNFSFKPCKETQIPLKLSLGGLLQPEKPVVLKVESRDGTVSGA
human CYP2C9, sequence (P11712 whole entry): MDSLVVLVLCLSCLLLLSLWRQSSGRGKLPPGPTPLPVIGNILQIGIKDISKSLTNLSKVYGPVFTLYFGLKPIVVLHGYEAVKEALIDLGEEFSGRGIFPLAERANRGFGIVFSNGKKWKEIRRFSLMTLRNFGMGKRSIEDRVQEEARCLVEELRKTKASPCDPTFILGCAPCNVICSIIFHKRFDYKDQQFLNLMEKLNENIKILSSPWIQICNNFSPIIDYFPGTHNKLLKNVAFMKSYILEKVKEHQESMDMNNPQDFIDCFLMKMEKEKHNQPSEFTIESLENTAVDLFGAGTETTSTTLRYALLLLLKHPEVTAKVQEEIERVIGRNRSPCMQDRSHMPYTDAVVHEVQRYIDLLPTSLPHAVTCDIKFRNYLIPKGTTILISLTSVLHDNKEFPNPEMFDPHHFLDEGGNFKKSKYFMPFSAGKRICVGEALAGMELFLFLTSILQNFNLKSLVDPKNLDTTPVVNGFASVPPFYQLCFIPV
Photinus pyralis (firefly) luciferase, sequence (P08659 whole entry): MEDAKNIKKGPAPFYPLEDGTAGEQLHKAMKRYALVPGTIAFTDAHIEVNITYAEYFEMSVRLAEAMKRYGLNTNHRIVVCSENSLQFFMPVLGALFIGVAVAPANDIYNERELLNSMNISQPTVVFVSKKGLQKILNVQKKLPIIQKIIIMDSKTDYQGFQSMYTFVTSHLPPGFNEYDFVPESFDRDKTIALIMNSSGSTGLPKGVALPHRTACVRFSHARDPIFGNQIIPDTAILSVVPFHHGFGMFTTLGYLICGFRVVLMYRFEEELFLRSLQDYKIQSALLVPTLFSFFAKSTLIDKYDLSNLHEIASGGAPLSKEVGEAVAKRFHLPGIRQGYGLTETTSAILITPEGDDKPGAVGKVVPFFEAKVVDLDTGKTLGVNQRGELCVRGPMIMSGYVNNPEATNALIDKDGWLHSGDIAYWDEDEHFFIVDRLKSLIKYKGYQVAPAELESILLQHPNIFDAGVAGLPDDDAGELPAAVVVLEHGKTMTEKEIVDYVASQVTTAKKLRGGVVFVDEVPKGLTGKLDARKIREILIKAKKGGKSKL

Row | SMILES | IC50 (human CYP2C9) [µM] | Luciferase IC50 (half-maximal inhibitory concentration) [1] | IC50 (human CYP2D6) [µM] | IC50 (CYP3A4) [µM] | IC50 (human CYP1A2) [µM] | IC50 (human CYP2C19) [µM] | further results
1 | CSc1ccc(C(=O)C(C)(C)N2CCOCC2)cc1 | 23.2 | Inactive | 2.53 | 3.18 | 40.1 | – | CYP2C19 Efficacy (human CYP2C19): 0.94 ± 0.32 (-142 ± 3) %
2 | C[N+](C)(CCOc1ccccc1)Cc1cccs1.[I-] | – | Inactive | 0.15 | – | – | – | CYP2C9 IC50 (half-maximal inhibitory concentration) (human CYP2C9): Inactive; CYP3A4 IC50 (half-maximal inhibitory concentration) (CYP3A4): Inactive; CYP1A2 IC50 (half-maximal inhibitory concentration) (human CYP1A2): Inactive; CYP2C19 IC50 (half-maximal inhibitory concentration) (human CYP2C19): Inactive
3 | COC(=O)c1c(C)cc(O)c(C)c1O | 50.2 | Inactive | 33 | 53.2 | 0.24 | – | CYP2C19 Efficacy (human CYP2C19): 6.41 ± 1.34 (-140 ± 12) %
4 | CCCCCCCC[N+](C)(CCCCCCCC)CCCCCCCC.O=S(=O)([O-])C(F)(F)F | 28.3 | Inactive | 0.19 | 3.7 | 47.6 | 12.9 | –
5 | CCCCCCCCCCCCCCCCCC[N+](C)(C)Cc1ccccc1.[Cl-] | – | – | – | 45.9 | – | – | CYP2C9 Efficacy (human CYP2C9): 38.84 ± 2.53 (-102 ± 5) %; IC50 ([1]; read-out: Luciferase IC50): 87 µM; CYP2D6 Efficacy (human CYP2D6): 0.67 ± 0.43 (-99 ± 3) %; CYP1A2 Efficacy (human CYP1A2): 80.42 ± 0 (-111 ± 16) %; CYP2C19 Efficacy (human CYP2C19): 48.63 ± 14.39 (-147 ± 23) %
6 | CCCC[N+](C)(CCCC)CCCC.O=S(=O)([N-]S(=O)(=O)C(F)(F)F)C(F)(F)F | 5.83 | Inactive | 0.48 | 67.4 | 50.6 | – | CYP2C19 IC50 (half-maximal inhibitory concentration) (human CYP2C19): Inactive
7 | CCCCCCCCCCCCCC[P+](CCCCCC)(CCCCCC)CCCCCC.O=S(=O)([N-]S(=O)(=O)C(F)(F)F)C(F)(F)F | 6.41 | Inactive | 0.25 | 3.13 | 37 | 43.7 | –
8 | COC(=O)C1=C(C)NC(C)=C(C(=O)O[C@@H]2CCCN(Cc3ccccc3)C2)[C@@H]1c1cccc([N+](=O)[O-])c1.Cl (racemic) [rac Benidipine hydrochloride] | 0.75 | Inactive | 13.6 | 0.84 | 25.2 | 6.53 | –
9 | Cl.OC(CNCC(O)C1CCc2cc(F)ccc2O1)C1CCc2cc(F)ccc2O1 (racemic) [rac Nebivolol hydrochloride] | – | Inactive | 0.25 | – | – | 41.3 | CYP2C9 IC50 (half-maximal inhibitory concentration) (human CYP2C9): Inactive; CYP2D6 Efficacy (human CYP2D6): 0.25 ± 0.05 (-104 ± 2) %; AC50 (CYP3A4): 16.1 µM; CYP3A4 IC50 (half-maximal inhibitory concentration) (CYP3A4): 16.12 ± 1.09 (65 ± 10) µM; CYP1A2 IC50 (half-maximal inhibitory concentration) (human CYP1A2): Inactive; CYP2C19 Efficacy (human CYP2C19): 41.28 ± 3.36 (-60 ± 3) %
10 | CC(=C(CCOC(=O)C(C)C)SSC(CCOC(=O)C(C)C)=C(C)N(C=O)Cc1cnc(C)nc1N)N(C=O)Cc1cnc(C)nc1N (stereo in doubt) [Bisibutiamine] | – | Inactive | – | 0.36 | – | – | CYP2C9 IC50 (half-maximal inhibitory concentration) (human CYP2C9): Inactive; CYP2D6 IC50 (half-maximal inhibitory concentration) (human CYP2D6): Inactive; CYP1A2 IC50 (half-maximal inhibitory concentration) (human CYP1A2): Inactive; CYP2C19 IC50 (half-maximal inhibitory concentration) (human CYP2C19): Inactive
11 | N=C(Nc1ccccc1)Nc1ccccc1 [1,3-Diphenylguanidine] | 53.1 | – | 0.2 | 51.9 | 30.8 | 45 | Luciferase IC50 [1]: Inactive
12 | CC[N+]1(C)CCCC1.[I-] [1-Ethyl-1-methylpyrrolidinium iodide] | – | – | 0.01 | – | 75.5 | 26.7 | CYP2C9 IC50 (human CYP2C9): Inactive; Luciferase IC50 [1]: Inactive; CYP3A4 IC50 (CYP3A4): Inactive
13 | CCCCCCCCCCCCCCCCn1cc[n+](C)c1.[Cl-] [1-Hexadecyl-3-methylimidazolium chloride] | 55.4 | Inactive | 0.38 | 63.6 | 69.7 | 53 | CYP2C9 Efficacy (in parenthesis) (human CYP2C9): 55.36 ± 23.27 (-121 ± 6) %; CYP2D6 Efficacy (in parenthesis) (human CYP2D6): 0.38 ± 0.13 (-102 ± 3) %; CYP3A4 Efficacy (in parenthesis) (CYP3A4): 63.62 ± 15.46 (-70 ± 19) %; CYP1A2 Efficacy (in parenthesis) (human CYP1A2): 69.7 ± 29.29 (-90 ± 28) %; CYP2C19 Efficacy (in parenthesis) (human CYP2C19): 52.99 ± 35.71 (-145 ± 35) %
14 | O=C(Nc1ccccc1SSc1ccccc1NC(=O)c1ccccc1)c1ccccc1 [2,2'-Dibenzoylaminodiphenyl disulfide] | 0.57 | – | – | 3.23 | 6.73 | 3.94 | CYP2C9 Efficacy (in parenthesis) (human CYP2C9): 0.57 ± 0.07 (-99 ± 3) %; Luciferase Efficacy (in parenthesis) [1]: 3.42 ± 1.53 (-57 ± 5) %; IC50 [1, 2]: 3.42 µM; CYP2D6 Efficacy (in parenthesis) (human CYP2D6): 37.5 ± 45.35 (15 ± 47) %; CYP2D6 IC50 (half-maximal inhibitory concentration) (human CYP2D6): 37.5 ± 45.35 (15 ± 47) µM; CYP3A4 Efficacy (in parenthesis) (CYP3A4): 3.23 ± 1.25 (-75 ± 7) %; CYP1A2 Efficacy (in parenthesis) (human CYP1A2): 6.73 ± 1.52 (-88 ± 2) %; CYP2C19 Efficacy (in parenthesis) (human CYP2C19): 3.94 ± 2.15 (-155 ± 9) %
15 | OCC(c1ccc(Cl)cc1)c1ccc(Cl)cc1 [2,2-Bis(4-chlorophenyl)ethanol] | – | Inactive | – | – | 34.3 | 0.14 | AC50 (human CYP2C9): 11.7 µM; CYP2C9 Efficacy (human CYP2C9): 11.71 ± 0.79 (-108 ± 10) %; CYP2C9 Efficacy (in parenthesis) (human CYP2C9): 11.71 ± 0.79 (-108 ± 10) %; CYP2D6 IC50 (half-maximal inhibitory concentration) (human CYP2D6): Inactive; AC50 (CYP3A4): 18.7 µM; CYP3A4 Efficacy (in parenthesis) (CYP3A4): 18.71 ± 6.46 (64 ± 10) %; CYP3A4 IC50 (half-maximal inhibitory concentration) (CYP3A4): 18.71 ± 6.46 (64 ± 10) µM; CYP1A2 Efficacy (human CYP1A2): 34.28 ± 2.23 (-78 ± 6) %; CYP1A2 Efficacy (in parenthesis) (human CYP1A2): 34.28 ± 2.23 (-78 ± 6) %; CYP2C19 Efficacy (human CYP2C19): 0.14 ± 0.07 (-161 ± 31) %; CYP2C19 Efficacy (in parenthesis) (human CYP2C19): 0.14 ± 0.07 (-161 ± 31) %
16 | CCOc1cc(OCC)c(C(C)=O)cc1OCC [2,4,5-Triethoxyacetophenone] | – | Inactive | 69.8 | 58.5 | 0.87 | 65 | CYP2C9 Efficacy (human CYP2C9): 37.98 ± 5.23 (-54 ± 11) %
17 | Cc1cc(N=Nc2ccccc2C)ccc1N [2-Amino-5-azotoluene] | – | – | 45.4 | 2.53 | 0.99 | 6.21 | CYP2C9 Efficacy (human CYP2C9): 5.45 ± 1.48 (-102 ± 10) %; IC50 ([1]; read-out: Luciferase IC50): 5.66 µM
18 | Nc1nc2ccc([N+](=O)[O-])cc2s1 [2-Amino-6-nitrobenzothiazole] | – | – | 44 | 60.6 | 9.75 | 35.7 | CYP2C9 Efficacy (human CYP2C9): 59.75 ± 4.61 (-39 ± 3) %; IC50 ([1]; read-out: Luciferase IC50): 66.4 µM
19 | Clc1ccc2c(c1)Nc1ccccc1S2 [2-Chlorophenothiazine] | – | Inactive | – | – | 0.44 | 7.85 | CYP2C9 Efficacy (human CYP2C9): 11.4 ± 3.88 (-60 ± 10) %; CYP2D6 IC50 (half-maximal inhibitory concentration) (human CYP2D6): Inactive; CYP3A4 IC50 (half-maximal inhibitory concentration) (CYP3A4): Inactive
20 | NNc1nc(-c2ccccc2)cs1 [2-Hydrazino-4-phenylthiazole] | 8.86 | – | 53.2 | 14 | 0.75 | 8.06 | IC50 ([1]; read-out: Luciferase IC50): 33.9 µM
21 | COc1cc2c(cc1N)oc1ccccc12 [2-Methoxy-3-aminodibenzofuran] | 6.23 | – | 7.61 | 8.5 | 0.63 | 3.95 | IC50 [1, 2]: 54.6 µM
22 | Cc1cc(-c2cc(C)c(N)c(C)c2)cc(C)c1N [3,3',5,5'-Tetramethylbenzidine] | 21.2 | – | 16.2 | 28.1 | 0.24 | 12.1 | Luciferase IC50 [1]: Inactive
23 | COc1cc(-c2ccc(N)c(OC)c2)ccc1N.Cl.Cl [3,3'-Dimethoxybenzidine dihydrochloride] | 8.91 | – | 30.4 | 1.71 | 0.82 | 7.39 | IC50 [1, 2]: 60.4 µM
24 | CC(=O)c1ccc2ccc3ccccc3c2c1 [3-Acetylphenanthrene] | 11.6 | – | 88.9 | 48.5 | 1.04 | 22.4 | CYP2C9 Efficacy (in parenthesis) (human CYP2C9): 11.64 ± 0.79 (-93 ± 2) %; Luciferase Efficacy (in parenthesis) [1]: 32.81 ± 2.22 (-56 ± 6) %; IC50 [1, 2]: 32.8 µM; CYP2D6 Efficacy (in parenthesis) (human CYP2D6): 88.85 ± 0 (-46 ± 10) %; CYP3A4 Efficacy (in parenthesis) (CYP3A4): 48.54 ± 19.2 (-66 ± 4) %; CYP1A2 Efficacy (in parenthesis) (human CYP1A2): 1.04 ± 0.13 (-97 ± 1) %; CYP2C19 Efficacy (in parenthesis) (human CYP2C19): 22.42 ± 2.58 (-138 ± 3) %
25 | O=C(C(=O)c1ccc(Br)cc1)c1ccc(Br)cc1 [4,4'-Dibromobenzil] | – | Inactive | – | – | 9.92 | 0.71 | CYP2C9 IC50 (half-maximal inhibitory concentration) (human CYP2C9): Inactive; CYP2D6 IC50 (half-maximal inhibitory concentration) (human CYP2D6): Inactive; CYP3A4 IC50 (half-maximal inhibitory concentration) (CYP3A4): Inactive; CYP1A2 Efficacy (in parenthesis) (human CYP1A2): 9.92 ± 0 (-37 ± 3) %; CYP2C19 Efficacy (in parenthesis) (human CYP2C19): 0.71 ± 0.31 (-137 ± 6) %
